Measured values from ChEMBL document CHEMBL1121624, “Synthesis, biological evaluation, and preliminary structure-activity considerations of a series of alkylphenols as intravenous anesthetic agents” (J Med Chem, 1980).

How the values were obtained:
[1] = species: Mus musculus; test: Duration of analgesic action in mice was determined; M = moderate, 5-10 min; format: functional, organism-based
[2] = species: Mus musculus; test: Speed of induction of analgesia in mice was determined; VS = very slow, > 15s; format: functional, organism-based
[3] = species: Mus musculus; test: Hypnotic activity was measured as dose which causes loss of righting reflex for a minimum period of 30s in 50% of mice; format: functional
[4] = Acute toxicity measured as median lethal dose in mice; format: organism-based; conditions: mouse, in vivo
[5] = Acute toxicity measured as median lethal dose in mice; Range is 100-120; format: organism-based; conditions: mouse, in vivo
[6] = species: Mus musculus; test: Duration of analgesic action in mice was determined; L = long, >10; format: functional, organism-based
[7] = species: Mus musculus; test: Hypnotic activity was measured as dose which causes loss of righting reflex for a minimum period of 30s in 50% of mice; Range is 30-40; format: functional
[8] = species: Mus musculus; test: Speed of induction of analgesia in mice was determined; S = slow, 10-15 s; format: functional, organism-based
[9] = species: Mus musculus; test: Duration of analgesic action in mice was determined; B = brief, < 5 min; format: functional, organism-based
[10] = species: Mus musculus; test: Hypnotic activity was measured as dose which causes loss of righting reflex for a minimum period of 30s in 50% of mice; Range is 5-10; format: functional
[11] = in vivo; conditions: mouse
[12] = species: Mus musculus; test: Speed of induction of analgesia in mice was determined; I = immediate, <10 s; format: functional, organism-based
[13] = species: Mus musculus; test: Acute toxicity measured as median lethal dose in mice; Range is 80-90; format: organism-based; conditions: in vivo
[14] = species: Mus musculus; test: Hypnotic activity was measured as dose which causes loss of righting reflex for a minimum period of 30s in 50% of mice; Range is 20-30; format: functional
[15] = species: Mus musculus; test: Hypnotic activity was measured as dose which causes loss of righting reflex for a minimum period of 30s in 50% of mice; Range is 10-15; format: functional
[16] = Acute toxicity measured as median lethal dose in mice; Range is 140-160; format: organism-based; conditions: mouse, in vivo
[17] = species: Mus musculus; test: Hypnotic activity was measured as dose which causes loss of righting reflex for a minimum period of 30s in 50% of mice; Range is 80-100; format: functional
[18] = Acute toxicity measured as median lethal dose in mice; Range is 40-60; format: organism-based; conditions: mouse, in vivo
[19] = Acute toxicity measured as median lethal dose in mice; […]; format: organism-based; conditions: mouse, in vivo
[20] = species: Mus musculus; test: Hypnotic activity was measured as dose which causes loss of righting reflex for a minimum period of 30s in 50% of mice; Range is 20-40; format: functional
[21] = Acute toxicity measured as median lethal dose in mice; Range is 120-140; format: organism-based; conditions: mouse, in vivo
[22] = Acute toxicity measured as median lethal dose in mice; Range is 160-180; format: organism-based; conditions: mouse, in vivo
[23] = species: Mus musculus; test: Hypnotic activity was measured as dose which causes loss of righting reflex for a minimum period of 30s in 50% of mice; Range is 15-20; format: functional
[24] = species: Mus musculus; test: Hypnotic activity was measured as dose which causes loss of righting reflex for a minimum period of 30s in 50% of mice; Range is 40-60; format: functional
[25] = species: Mus musculus; test: Hypnotic activity was measured as dose which causes loss of righting reflex for a minimum period of 30s in 50% of mice; Range is 10-20; format: functional

Question: Which Duration of action [1] does the source give for `CCCCC(C)c1cccc(CCC)c1O` (centres undefined) here?
Answer: Moderate

Question: What about the Speed of induction [2] of the same molecule?
Answer: Very slow

Question: What about the HD50 [3] of the same molecule?
Answer: 50 mg/kg

Question: And the LD50 [4]?
Answer: 140 mg/kg

Question: With `CC(C)c1cccc(C2CCCCC2)c1O` as the molecule, how does the LD50 [5] read?
Answer: 100 mg/kg

Question: And the Duration of action [6]?
Answer: Long

Question: And the HD50 [7]?
Answer: 30 mg/kg

Question: And the Speed of induction [8]?
Answer: Slow

Question: For `CC(C)c1cccc(C(C)C)c1O` [PROPOFOL], which Duration of action [9] is on record?
Answer: Brief duration

Question: And the HD50 [10]?
Answer: 5 mg/kg

Question: And the LD50 [11]?
Answer: 50 mg/kg

Question: And the Speed of induction [12]?
Answer: Immediate induction

Question: With `Cc1ccc(O)c(C)c1` as the molecule, how does the LD50 [5] read?
Answer: 100 mg/kg

Question: What about the HD50 [7] of the same molecule?
Answer: 30 mg/kg

Question: Which LD50 [13] does the source give for `CCCC(C)C1(CC)C(=O)[N-]C(=S)NC1=O.[Na+]` (stereo in doubt; form 1) [THIOPENTAL SODIUM] here?
Answer: 80 mg/kg

Question: Which results are given for `Cc1cccc(C(C)C)c1O`?
Answer: HD50 [14]: 20 mg/kg; Duration of action [9]: Brief duration; LD50 [4]: 80 mg/kg; Speed of induction [12]: Immediate

Question: Which results are given for `CNC1(c2ccccc2Cl)CCCCC1=O.Cl` (centres undefined) [KETAMINE HYDROCHLORIDE]?
Answer: Duration of action [9]: Brief duration; LD50 [4]: 60 mg/kg; Speed of induction [8]: Slow; HD50 [15]: 10 mg/kg

Question: Which Duration of action [9] does the source give for `Cc1cccc(C2CCCCC2)c1O` here?
Answer: Brief duration

Question: And the LD50 [16]?
Answer: 140 mg/kg

Question: What about the Speed of induction [2] of the same molecule?
Answer: Very slow

Question: What about the HD50 [7] of the same molecule?
Answer: 30 mg/kg

Question: With `CC(C)(C)c1cccc(C(C)(C)C)c1O` as the molecule, how does the LD50 [4] read?
Answer: 120 mg/kg

Question: What about the HD50 [17] of the same molecule?
Answer: 80 mg/kg

Question: With `CCc1cccc(C(C)CC)c1O` (centres undefined) as the molecule, how does the Duration of action [9] read?
Answer: Brief duration

Question: And the LD50 [4]?
Answer: 80 mg/kg

Question: What about the Speed of induction [12] of the same molecule?
Answer: Immediate

Question: What about the HD50 [15] of the same molecule?
Answer: 10 mg/kg

Question: For `CCc1ccc(O)c(C(C)C)c1`, which HD50 [3] is on record?
Answer: 40 mg/kg

Question: And the LD50 [4]?
Answer: 120 mg/kg

Question: Which HD50 [14] does the source give for `CCCCc1cccc(C(C)CC)c1O` (centres undefined) here?
Answer: 20 mg/kg

Question: And the Duration of action [1]?
Answer: Moderate

Question: What about the Speed of induction [2] of the same molecule?
Answer: Very slow

Question: And the LD50 [4]?
Answer: 120 mg/kg

Question: With `CCC(C)c1cc(C)cc(C(C)CC)c1O` (centres undefined) as the molecule, how does the HD50 [3] read?
Answer: 30 mg/kg

Question: What about the LD50 [4] of the same molecule?
Answer: 140 mg/kg

Question: With `CC(C)c1ccc(O)cc1` as the molecule, how does the LD50 [18] read?
Answer: 40 mg/kg

Question: And the HD50 [7]?
Answer: 30 mg/kg

Question: With `CCC(C)c1ccc(O)cc1` (centres undefined) as the molecule, how does the LD50 [18] read?
Answer: 40 mg/kg

Question: With `CCCC(C)c1ccccc1O` (centres undefined) as the molecule, how does the HD50 [14] read?
Answer: 20 mg/kg

Question: What about the LD50 [4] of the same molecule?
Answer: 100 mg/kg

Question: Which Duration of action [9] does the source give for `CCC(C)c1cccc(C(C)C)c1O` (centres undefined) here?
Answer: Brief duration

Question: What about the HD50 [10] of the same molecule?
Answer: 5 mg/kg

Question: And the LD50 [4]?
Answer: 50 mg/kg

Question: And the Speed of induction [12]?
Answer: Immediate

Question: With `Cc1cc(C(C)(C)C)ccc1O` as the molecule, how does the LD50 [19] read?
Answer: 180 mg/kg

Question: What about the HD50 [3] of the same molecule?
Answer: 80 mg/kg

Question: Which Duration of action [9] does the source give for `CCC(C)c1cccc(C2CC2)c1O` (centres undefined) here?
Answer: Brief duration

Question: And the Speed of induction [8]?
Answer: Slow

Question: What about the HD50 [20] of the same molecule?
Answer: 20 mg/kg

Question: What about the LD50 [21] of the same molecule?
Answer: 120 mg/kg

Question: Which LD50 [22] does the source give for `CCCC(C)c1cccc(C(C)CCC)c1O` (centres undefined) here?
Answer: 160 mg/kg

Question: What about the Speed of induction [2] of the same molecule?
Answer: Very slow

Question: And the HD50 [23]?
Answer: 15 mg/kg

Question: What about the Duration of action [6] of the same molecule?
Answer: Long

Question: With `Cc1cccc(C(C)(C)C)c1O` as the molecule, how does the Duration of action [9] read?
Answer: Brief duration

Question: And the HD50 [24]?
Answer: 40 mg/kg

Question: And the Speed of induction [12]?
Answer: Immediate induction

Question: And the LD50 [21]?
Answer: 120 mg/kg

Question: Which Duration of action [9] does the source give for `CCCc1cccc(C(C)CC)c1O` (centres undefined) here?
Answer: Brief duration

Question: What about the HD50 [25] of the same molecule?
Answer: 10 mg/kg

Question: And the LD50 [4]?
Answer: 120 mg/kg

Question: What about the Speed of induction [8] of the same molecule?
Answer: Slow

Question: With `Cc1cccc(C)c1O` as the molecule, how does the HD50 [14] read?
Answer: 20 mg/kg

Question: And the Duration of action [9]?
Answer: Brief duration

Question: What about the Speed of induction [12] of the same molecule?
Answer: Immediate induction

Question: For `Cc1cc(C(C)(C)C)c(O)c(C(C)(C)C)c1` [BUTYLATED HYDROXYTOLUENE], which HD50 [17] is on record?
Answer: 80 mg/kg

Question: Which results are given for `CCCCCC(C)c1cccc(C)c1O` (centres undefined)?
Answer: Speed of induction [2]: Very slow; HD50 [23]: 15 mg/kg; Duration of action [6]: Long; LD50 [4]: 100 mg/kg

Question: For `CCCC(C)c1cccc(C(C)C)c1O` (centres undefined), which Duration of action [6] is on record?
Answer: Long

Question: And the LD50 [4]?
Answer: 80 mg/kg

Question: What about the Speed of induction [8] of the same molecule?
Answer: Slow

Question: And the HD50 [15]?
Answer: 10 mg/kg

Question: What does the source list for `C=CCC1(C(C)C#CCC)C(=O)N=C([O-])N(C)C1=O.[Na+]` (centres undefined) [METHOHEXITAL SODIUM]?
Answer: HD50 [10]: 5 mg/kg; LD50 [4]: 30 mg/kg

Question: What does the source list for `Cc1cc(C)c(C(C)C)c(O)c1C(C)C`?
Answer: LD50 [22]: 160 mg/kg; HD50 [3]: 120 mg/kg
